Literature values in patent publication US12075777B2, “Antimicrobial formulation” (Anitox Corporation, priority 2011, dated 2024).

How the values were obtained:
[1] = test system: soybean seed; conditions: 1.8 of trans-2-hexenal/mL of air
[2] = test system: pears and apples; conditions: 12.5 μL/L; twenty four hours to seven days exposure
[3] = test system: A. flavus, P. notatum, A. alternate, F. oxysporum, Cladosporium species, B. subtilis and A. tumerfaciens
[4] = test system: peaches and nectarines; conditions: at 40 μL/L
[5] = test system: Staphylococcus aureus, E. coli and Salmonella typhimurium
[6] = 0, 0.1, 0.2, 0.3 and 0.4% in water
[7] = test system: yeast; design: dose or concentration left out as unconfirmed; conditions: 10^5 CFU/bottle; equivalence: trans-2-hexenal with thermal treatment (56° C.) vs citral
[8] = test system: E. coli

SMILES: CCC/C=C/C=O [trans-2-hexenal]
- inhibition of soybean seed germination [1]: ~100%
- effect on fruit appearance, color, firmness, soluble solids content or titrateable acidity [2]: did not affect
- body weight and intake (4000 ppm in diet, 13 wk): reduction in body weight and intake, but it was not significant
- changes in hematological parameters or organ weights (dietary levels of 0, 260, 640, 1600 or 4000 ppm fed for 13 wk): did not induce any changes
- concentration that completely inhibited growth [3]: 8 ng/L air
- phytotoxicity [4]: phytotoxic

SMILES: CC/C=C/CC=O [(3E)-hexenal]
- effective level in controlling bacteria [5]: 3 to 30 µg/mL

SMILES: CC(=O)O [acetic acid]
- effect on performance or intestinal microbial counts [6]: did not affect performance or intestinal microbial counts

SMILES: CC(C)=CCCC(C)=CC=O [citral]
- concentration controlling yeast in beverages [7]: 100-120 ppm
- concentration in growth media that reduced the concentration of E. coli [8]: more than 0.01%
- concentration with bactericidal effect [8]: 0.08%
